# What was measured:
# Details in all cases: in the presence of a fixed amount (8 μg/mL) of Ceftazidime; CAMHB, 16-20 hours at 37° C.
# [1] = system: E. coli expressing the Class A ESBL SHV-5; format: cell-based
# Excerpt: (§1) To determine the ability of test compounds to potentiate the inhibition of the growth of bacterial strains producing beta-lactamase enzymes, classic cell based screening assays were employed. Four bacteria strains producing beta-lactamase enzymes were used: K. pneumoniae expressing the Class A Extended Spectrum Beta-Lactamase (ESBL) CTX-M-15, E. coli expressing the Class A ESBL SHV-5, E. cloacae expressing the Class C P99+, and K. pneumoniae expressing the Class A carbapenemase KPC-2. In order to evaluate the ability of test compounds to inhibit beta-lactamase activity, Applicants used a modification of the broth microdilution assay. The assay was conducted in Cation Adjusted Mueller Hinton Broth (CAMHB, BD #212322, BD Diagnostic Systems, Sparks, Md.). Bacteria strains were grown for 3-5 hours in CAMBH broth. All four strains were grown in presence of 50 μg/mL ampicillin to ensure resistance is maintained. In the meantime, test compounds were diluted in DMSO to a 0.1 mg/mL stock. The compounds were added to a microtiter plate and were diluted in 2-fold serial dilutions in CAMHB in a final concentration range of 8 μg/mL to 0.015 μg/ml. An overlay of CAMHB containing a cephalosporin was added to the compounds at a final static concentration of 8 μg/ml. […] Each of these compound plates are made in quadruplicate, one for each bacteria strain. In addition to the titration of test compounds the MICs of a panel of cephalosporins is also tested to ensure the strains are behaving consistently from test to test. Once the test compound and cephalosporin are added the plates can be inoculated. Inocula are conducted according to CLSI broth microdilution method. After inoculation the plates are incubated for 16-20 hours at 37° C. then the Minimal Inhibitory Concentration (MIC) of the test compound is determined visually.
# (§2) Using the methodology described above, examples of the current invention were evaluated for their ability to inhibit the growth of β-lactamase producing bacteria in the presence of a β-lactam antibiotic. […] NT=Not Tested.
# [2] = system: K. pneumoniae expressing the Class A Extended Spectrum Beta-Lactamase (ESBL) CTX-M-15; format: cell-based
# Excerpt: as §1, §2
# [3] = system: K. pneumoniae expressing the Class A carbapenemase KPC-2
# Excerpt: as §1, §2
# [4] = system: E. cloacae expressing the Class C P99+; format: cell-based
# Excerpt: as §1, §2
structure (smiles),measurement,setting,value
"O=C(Cc1cccs1)N[C@@H](Cc1cccc(C(=O)O)c1O)B(O)O [Example 1, (1R)-1-(2-thiophene-2-yl-acetylamino)-2-(2-hydroxy-3-carboxyphenyl)ethyl-1-boronic acid]","MIC of example compound, E. coli SHV-5 + 8 μg/mL CAZ",[1],C (C represents an MIC of <1 μg/mL)
same,"MIC of example compound, K. pneumoniae CTX-M-15 + 8 μg/mL CAZ",[2],C (C represents an MIC of <1 μg/mL)
same,"MIC of example compound, K. pneumoniae KPC-2 + 8 μg/mL CAZ",[3],C (C represents an MIC of <1 μg/mL)
"Cl.NCCOc1cccc(CC(=O)N[C@@H](Cc2cccc(C(=O)O)c2O)B(O)O)c1 [Example 4, (1R)-1-[3-(2-amino)-ethoxy-phenyl]acetylamino-1-(3-carboxy-2-hydroxy)benzyl-methylboronic acid hydrochloride]","MIC of example compound, E. cloacae P99 AmpC + 8 μg/mL CAZ",[4],C (C represents an MIC of <1 μg/mL)
same,"MIC of example compound, E. coli SHV-5 + 8 μg/mL CAZ",[1],C (C represents an MIC of <1 μg/mL)
same,"MIC of example compound, K. pneumoniae CTX-M-15 + 8 μg/mL CAZ",[2],C (C represents an MIC of <1 μg/mL)
same,"MIC of example compound, K. pneumoniae KPC-2 + 8 μg/mL CAZ",[3],C (C represents an MIC of <1 μg/mL)
"O=C(O)COc1cccc(CC(=O)N[C@@H](Cc2cccc(C(=O)O)c2O)B(O)O)c1 [Example 7, (1R)-1-[3-(carboxymethoxy)-phenyl]acetylamino-(3-carboxy-2-hydroxy)benzyl-methylboronic acid]","MIC of example compound, E. coli SHV-5 + 8 μg/mL CAZ",[1],C (C represents an MIC of <1 μg/mL)
same,"MIC of example compound, K. pneumoniae CTX-M-15 + 8 μg/mL CAZ",[2],C (C represents an MIC of <1 μg/mL)
same,"MIC of example compound, K. pneumoniae KPC-2 + 8 μg/mL CAZ",[3],C (C represents an MIC of <1 μg/mL)
"O=C(Cc1cc(Br)cs1)N[C@@H](Cc1cccc(C(=O)O)c1O)B(O)O [Example 9, (1R)-1-(2-(4-bromo-thiophen-2-nyl)acetylamino)-2-(2-hydroxy-3-carboxyphenyl)ethyl-1-boronic acid]","MIC of example compound, E. coli SHV-5 + 8 μg/mL CAZ",[1],C (C represents an MIC of <1 μg/mL)
same,"MIC of example compound, K. pneumoniae CTX-M-15 + 8 μg/mL CAZ",[2],C (C represents an MIC of <1 μg/mL)
same,"MIC of example compound, K. pneumoniae KPC-2 + 8 μg/mL CAZ",[3],C (C represents an MIC of <1 μg/mL)
O=C(Cc1ccccc1)N[C@@H](Cc1cccc(C(=O)O)c1O)B(O)O [Example 10],"MIC of example compound, E. cloacae P99 AmpC + 8 μg/mL CAZ",[4],C (C represents an MIC of <1 μg/mL)
same,"MIC of example compound, E. coli SHV-5 + 8 μg/mL CAZ",[1],C (C represents an MIC of <1 μg/mL)
same,"MIC of example compound, K. pneumoniae CTX-M-15 + 8 μg/mL CAZ",[2],C (C represents an MIC of <1 μg/mL)
same,"MIC of example compound, K. pneumoniae KPC-2 + 8 μg/mL CAZ",[3],C (C represents an MIC of <1 μg/mL)
"COc1ccc(OC)c(CC(=O)N[C@@H](Cc2cccc(C(=O)O)c2O)B(O)O)c1 [Example 17, (1R)-1-(2-(2,5-dimethoxyphenyl)-acetylamino)-2-(2-hydroxy-3-carboxyphenyl)ethyl-1-boronic acid]","MIC of example compound, E. cloacae P99 AmpC + 8 μg/mL CAZ",[4],C (C represents an MIC of <1 μg/mL)
same,"MIC of example compound, E. coli SHV-5 + 8 μg/mL CAZ",[1],A (A represents an MIC>8 μg/mL)
same,"MIC of example compound, K. pneumoniae CTX-M-15 + 8 μg/mL CAZ",[2],C (C represents an MIC of <1 μg/mL)
"O=C(CO)N[C@@H](Cc1cccc(C(=O)O)c1O)B(O)O [Example 19, (1R)-1-Hydroxyacetylamino-1-(3-carboxy-2-hydroxy)benzyl-methyl boronic acid]","MIC of example compound, E. coli SHV-5 + 8 μg/mL CAZ",[1],A (A represents an MIC>8 μg/mL)
same,"MIC of example compound, K. pneumoniae CTX-M-15 + 8 μg/mL CAZ",[2],C (C represents an MIC of <1 μg/mL)
same,"MIC of example compound, K. pneumoniae KPC-2 + 8 μg/mL CAZ",[3],C (C represents an MIC of <1 μg/mL)
"CCCCCC(=O)N[C@@H](Cc1cccc(C(=O)O)c1O)B(O)O [Example 21, (1R)-1-Hexanoylamino-(3-carboxy-2-hydroxy)benzyl-methylboronic acid]","MIC of example compound, E. coli SHV-5 + 8 μg/mL CAZ",[1],C (C represents an MIC of <1 μg/mL)
same,"MIC of example compound, K. pneumoniae CTX-M-15 + 8 μg/mL CAZ",[2],C (C represents an MIC of <1 μg/mL)
same,"MIC of example compound, K. pneumoniae KPC-2 + 8 μg/mL CAZ",[3],C (C represents an MIC of <1 μg/mL)
"CCCCC(=O)N[C@@H](Cc1cccc(C(=O)O)c1O)B(O)O [Example 23, (1R)-1-(pentanoylamino)-2-(2-hydroxy-3-carboxyphenyl)ethyl-1-boronic acid]","MIC of example compound, E. cloacae P99 AmpC + 8 μg/mL CAZ",[4],C (C represents an MIC of <1 μg/mL)
same,"MIC of example compound, E. coli SHV-5 + 8 μg/mL CAZ",[1],C (C represents an MIC of <1 μg/mL)
same,"MIC of example compound, K. pneumoniae CTX-M-15 + 8 μg/mL CAZ",[2],C (C represents an MIC of <1 μg/mL)
same,"MIC of example compound, K. pneumoniae KPC-2 + 8 μg/mL CAZ",[3],C (C represents an MIC of <1 μg/mL)
"COc1cccc(C(=O)N[C@@H](Cc2cccc(C(=O)O)c2O)B(O)O)c1 [Example 29, (1R)-1-(3-methoxybenzoylamino)-2-(2-hydroxy-3-carboxyphenyl)ethyl-1-boronic acid]","MIC of example compound, E. coli SHV-5 + 8 μg/mL CAZ",[1],C (C represents an MIC of <1 μg/mL)
same,"MIC of example compound, K. pneumoniae CTX-M-15 + 8 μg/mL CAZ",[2],C (C represents an MIC of <1 μg/mL)
same,"MIC of example compound, K. pneumoniae KPC-2 + 8 μg/mL CAZ",[3],C (C represents an MIC of <1 μg/mL)
"NCCC(=O)N[C@@H](Cc1cccc(C(=O)O)c1O)B(O)O.O=CO [Example 38, (1R)-1-(3-aminopropanoylamino)-2-(2-hydroxy-3-carboxyphenyl)ethyl-1-boronic acid formate salt]","MIC of example compound, E. coli SHV-5 + 8 μg/mL CAZ",[1],A (A represents an MIC>8 μg/mL)
same,"MIC of example compound, K. pneumoniae CTX-M-15 + 8 μg/mL CAZ",[2],A (A represents an MIC>8 μg/mL)
same,"MIC of example compound, K. pneumoniae KPC-2 + 8 μg/mL CAZ",[3],C (C represents an MIC of <1 μg/mL)
"Nc1nc(CC(=O)N[C@@H](Cc2cccc(C(=O)O)c2O)B(O)O)cs1.O=CO [Example 39, (1R)-1-(2-Amino-thiazol-4-yl)-acetylamino-1-(3-carboxy-2-hydroxy)benzyl-methylboronic acid formate salt]","MIC of example compound, E. cloacae P99 AmpC + 8 μg/mL CAZ",[4],C (C represents an MIC of <1 μg/mL)
same,"MIC of example compound, E. coli SHV-5 + 8 μg/mL CAZ",[1],C (C represents an MIC of <1 μg/mL)
same,"MIC of example compound, K. pneumoniae CTX-M-15 + 8 μg/mL CAZ",[2],C (C represents an MIC of <1 μg/mL)
same,"MIC of example compound, K. pneumoniae KPC-2 + 8 μg/mL CAZ",[3],C (C represents an MIC of <1 μg/mL)
"NCC(=O)N[C@@H](Cc1cccc(C(=O)O)c1O)B(O)O.O=CO [Example 41, (1R)-1-(2-aminoacetylamino)-2-(2-hydroxy-3-carboxyphenyl)ethyl-1-boronic acid formate salt]","MIC of example compound, E. cloacae P99 AmpC + 8 μg/mL CAZ",[4],A (A represents an MIC>8 μg/mL)
same,"MIC of example compound, E. coli SHV-5 + 8 μg/mL CAZ",[1],A (A represents an MIC>8 μg/mL)
same,"MIC of example compound, K. pneumoniae CTX-M-15 + 8 μg/mL CAZ",[2],A (A represents an MIC>8 μg/mL)
same,"MIC of example compound, K. pneumoniae KPC-2 + 8 μg/mL CAZ",[3],C (C represents an MIC of <1 μg/mL)
"O=C(O)c1cccc(C[C@H](NC(=O)c2c(Cl)cccc2Cl)B(O)O)c1O [Example 43, (1R)-1-(2,6-Dichlorobenzoyl)-amino-1-(3-carboxy-2-hydroxy)benzyl-methylboronic acid]","MIC of example compound, E. coli SHV-5 + 8 μg/mL CAZ",[1],A (A represents an MIC>8 μg/mL)
same,"MIC of example compound, K. pneumoniae CTX-M-15 + 8 μg/mL CAZ",[2],A (A represents an MIC>8 μg/mL)
same,"MIC of example compound, K. pneumoniae KPC-2 + 8 μg/mL CAZ",[3],A (A represents an MIC>8 μg/mL)
"Cc1nc(-c2cccc(C(=O)N[C@@H](Cc3cccc(C(=O)O)c3O)B(O)O)c2)no1 [Example 47, (1R)-1-[3-(5-methyl-[1,2,4]oxadiazol-3-yl)-benzoyl]-amino-1-(3-carboxy-2-hydroxy)benzyl-methylboronic acid]","MIC of example compound, E. coli SHV-5 + 8 μg/mL CAZ",[1],A (A represents an MIC>8 μg/mL)
same,"MIC of example compound, K. pneumoniae CTX-M-15 + 8 μg/mL CAZ",[2],A (A represents an MIC>8 μg/mL)

# — patent US20100286092A1, “BETA-LACTAMASE INHIBITORS” (priority 2007, published 2010)
